{"source": "patent US9744250B2", "about": "“Chemical model of a neurodegenerative disease, method for preparation and uses of same” (priority 2012, dated 2017)", "key": {"α-synuclein": {"system": "α-synuclein", "experiment": "Cellular accumulation of α-synuclein (Western blot) in SH-SY5Y cells", "type": "cell-based, human", "conditions": "1 mM, 96 h incubation", "procedure": "Cells were incubated under the same conditions as above with furosemide pyridinium (1 mM, incubation: 96 h) and MPP+ (1 mM, incubation: 6 h, wait 24 h). After incubation, the cells were trypsinized, rinsed with PBS, counted, then harvested in 100 μl of buffer containing: 250 mM sucrose; 70 mM KCl; 137 mm NaCl; 4.3 mm NaH2PO4; 1.4 mm KH2PO4, pH 7.2; and […] digitonin. Incubation at 4° C. was then conducted for 5 minutes before centrifuging at 13,000 g for 5 minutes to separate the cytosolic and lysosomal fraction from the mitochondrial fraction. Deposits of cytosolic fraction in the Western blot were adjusted according to the number of cells. The protein samples were diluted in 4× Laemmli and were then heated for 3 minutes at 95° C. to denature. They were loaded into the wells of gel. In addition to the samples, a molecular weight marker (Fermentas) was deposited in the gel. […] The transfer was carried out on PVDF membrane. The transfer was done in transfer buffer (25 mM Tris, 192 mM glycine, 10% methanol) overnight at 4° C. and 30V or for 2 hours at 4° C. and 80V. […] Then the membranes were immunolabeled for 1.5 h at room temperature with a primary antibody diluted in 1×PBS/0.2% Tween/3% milk. […] The primary antibody used was anti-α-synuclein, 1:500 (visualized with an anti-rabbit secondary antibody, 1:10,000)."}, "caspase-8": {"system": "caspase-8", "experiment": "Caspase-8 activity (Ac-IETD-AFC cleavage) in SH-SY5Y cells", "type": "cell-based, human", "conditions": "1 mM, 96 h", "procedure": "(§1) Measurement of the activities of the various caspases is based on the ability of the caspases to cleave specific fluorescent substrates: Ac-DEVD-AFC for caspase-3, Ac-IETD-AFC for caspase-8, or Ac-LEHD-AFC for caspase-9. SH-SY5Y neuronal cells were incubated in 48-well plates with either furosemide pyridinium (1 mM) for 96 h or with MPP+ (1 mM) for 6 h, then 24 h of incubation with no MPP+. After incubation, the cells were trypsinized, then rinsed with PBS and counted, then harvested in 100 μl of buffer containing 30 mM HEPES, 0.3 mM EDTA, 100 mM NaCl, 0.15% Triton X-100, and 10 mM DTT. The cell extract was then incubated for 1 hour at 37° C. with the specific substrate (100 μM) in a 96-well plate. Fluorescence was measured at λex400 nm and λem505 nm in a fluorescence detection plate reader (TECAN Infinite M1000) (Yue et al., supra). The results were expressed as percentages relative to the measured activity of cells cultured under the same conditions and not subjected to any treatment."}, "[1]": {"system": "mitochondrial respiratory chain", "experiment": "Respiratory chain activity of mitochondria from striata of exposed mice", "type": "in vivo, mouse", "conditions": "20 mg/kg/day oral 7 days, 30 days after end of exposure", "procedure": "Added to the polarography chamber (Hansatech) were 30 μl of mitochondria solution (0.2 mg), 460 μL of respiration buffer, 5 μl of test compound solution (meaning MPP+ or furosemide pyridinium) (or its solubilizing solvent). Then 5 μl of a 10/10 mM mixture of malate-pyruvate substrates were added, which allowed the respiratory chain to function (stage 2) starting from complex I. After about 40 seconds, 5 μl of 200 μM ADP were added, resulting in an increase in oxygen consumption as the ADP activated complex V (stage 3). Once all the ADP was consumed, the oxygen consumption returned to an initial stage (stage 4) that is equivalent to stage 2. The effect of the compound on respiratory control was evaluated (ratio of stage 3 to 4), which corresponds to the coupling of the respiratory chain, or in other words the ATP synthesis at complex V and the oxygen consumption due to complexes I to IV. The results are expressed as percentages of the value measured for mitochondria not treated with the test compound (but treated with the solubilizing solvent).\nSwiss mice were divided into two groups of five animals (experimental and control). The experiments were performed independently two times. The mice of the experimental group were exposed to furosemide pyridinium for 7 days at a daily dose of 20 mg/kg. The furosemide pyridinium was administered orally in the drinking water. […]"}, "[2]": {"system": "respiratory chain complexes II-V of rat cerebral cortex mitochondria", "experiment": "Respiratory control after induction of complex II by succinate and inhibition of complex I by rotenone", "type": "biochemical", "conditions": "1 mM, succinate", "procedure": "(§2) The animal was then decapitated in order to collect from the brain either the cortex or the striatum, which were quickly placed in a Potter Elvejhem® containing 6 ml of extraction buffer at 4° C. (250 mM sucrose, 40 mM KCl, 2 mM EGTA, lmg/ml BSA, 20 mM Tris, pH=7.2). This mixture was homogenized to break open the cells and release the mitochondria and then centrifuged at 2000 g for 8 minutes to remove the larger membrane debris and the nuclei from the pellet. The supernatant was then recovered and centrifuged at 13,000 g for 11 minutes. The supernatant was discarded while the pellet containing a mitochondria-rich fraction was resuspended in 500 μl of respiration buffer at 4° C. (300 mM D-mannitol, 10 mM KCl, 10 mM KH2PO4, 5 mM MgCl2, pH=7.2). […]\nAdded to the polarography chamber (Hansatech) were 30 μl of mitochondria solution (0.2 mg), 460 μL of respiration buffer, 5 μl of test compound solution (meaning MPP+ or furosemide pyridinium) (or its solubilizing solvent). […] The effect of the compound on respiratory control was evaluated (ratio of stage 3 to 4), which corresponds to the coupling of the respiratory chain, or in other words the ATP synthesis at complex V and the oxygen consumption due to complexes I to IV. The results are expressed as percentages of the value measured for mitochondria not treated with the test compound (but treated with the solubilizing solvent). […]"}, "caspase-3": {"system": "caspase-3", "experiment": "Caspase-3 activity (Ac-DEVD-AFC cleavage) in SH-SY5Y cells", "type": "cell-based, human", "conditions": "1 mM, 96 h", "procedure": "as §1"}, "[3]": {"system": "mitochondria isolated from rat striatum", "experiment": "Respiratory control (oxygen consumption) of isolated striatum mitochondria", "type": "biochemical", "procedure": "as §2\n(§3) Added to the polarography chamber (Hansatech) were 30 μl of mitochondria solution (0.2 mg), 460 μL of respiration buffer, 5 μl of test compound solution (meaning MPP+ or furosemide pyridinium) (or its solubilizing solvent). […] The effect of the compound on respiratory control was evaluated (ratio of stage 3 to 4), which corresponds to the coupling of the respiratory chain, or in other words the ATP synthesis at complex V and the oxygen consumption due to complexes I to IV. The results are expressed as percentages of the value measured for mitochondria not treated with the test compound (but treated with the solubilizing solvent)."}, "mice": {"system": "mice", "experiment": "Lethality of 7-day oral administration in mice", "type": "in vivo, mouse", "conditions": "daily dose of 20 mg/kg for seven days", "procedure": "(§4) Swiss mice were divided into two groups of five animals (experimental and control). The experiments were performed independently two times. The mice of the experimental group were exposed to furosemide pyridinium for 7 days at a daily dose of 20 mg/kg. The furosemide pyridinium was administered orally in the drinking water. The mice were sacrificed 30 days after the end of the furosemide pyridinium treatment."}, "[4]": {"system": "α-synuclein phosphorylated at serine 129", "experiment": "Immunohistochemistry of Ser129-phosphorylated alpha-synuclein in exposed mice", "type": "in vivo, mouse", "conditions": "20 mg/kg/day oral 7 days, 30 days after end of exposure", "procedure": "as §4\nFor this, the mice were anesthetized with pentobarbital (50 mg/Kg), then an intracardiac infusion of NaCl (0.9%) was administered, followed by fixation by an infusion of 4% paraformaldehyde in 0.1M phosphate buffer, pH 7.2. The brain was removed, placed in NaCl (0.9%) at 4° C., and frozen in Tissue Tek immersed in a cold isopentane bath. Coronal sections of eight microns were obtained using a cryostat and were processed for immunohistochemistry (labeling the tyrosine hydroxylase and the Ser129-phosphorylated alpha-synuclein)."}, "[5]": {"system": "mitochondria isolated from rat cerebral cortex", "experiment": "Respiratory control (oxygen consumption, malate/pyruvate) of isolated cerebral cortex mitochondria", "type": "biochemical", "conditions": "increasing concentration", "procedure": "as §2, §3"}}, "data": [{"smiles": "NS(=O)(=O)c1cc(C(=O)[O-])c(-[n+]2cccc(O)c2)cc1Cl", "note": "[furosemide pyridinium, 4-chloro-2-(3-hydroxypyridinium-1-yl)-5-sulfamoylbenzoate]", "values": [{"measurement": "increase in the total amount of α-synuclein compared to control cells", "setting": "α-synuclein", "value": 40, "unit": "%"}, {"measurement": "change in caspase-8 activity", "setting": "caspase-8", "value": "did not induce significant changes"}, {"measurement": "decrease in respiratory control of striatal mitochondria vs control animals", "setting": "[1]", "value": 28, "unit": "%"}, {"measurement": "respiratory control of cortex mitochondria after induction by complex II", "setting": "[2]", "value": "not modified"}, {"measurement": "activity of caspase-3 compared to untreated cells", "setting": "caspase-3", "value": 179, "unit": "%"}, {"measurement": "effect on striatal mitochondria versus cortex mitochondria", "setting": "[3]; comparison striatum vs cortex", "value": "greater on striatal mitochondria"}, {"measurement": "oxygen consumption of striatum mitochondria", "setting": "[3]; dose-response", "value": "decrease in oxygen consumption"}, {"measurement": "lethality", "setting": "mice", "value": "not lethal"}, {"measurement": "α-synuclein phosphorylated at serine 129 in the cortexes", "setting": "[4]; cortex", "value": "no increase"}, {"measurement": "α-synuclein phosphorylated at serine 129 in the striata", "setting": "[4]; striatum", "value": "sharp increase"}, {"measurement": "respiratory control of cerebral cortex mitochondria induced by malate/pyruvate", "setting": "[5]", "value": "diminished"}]}]}
